Data reported in patent publication US5019573A, “Substituted dibenzofurans and methods of using same” (Euroceltique, S.A., priority 1989, dated 1991).

Legend:
[1] = tested on: LTB4-induced degranulation of purified human neutrophils; test: LTB4-induced neutrophil degranulation (myeloperoxidase release); assay type: cell-based; conditions: LTB4-induced MPO release; for inhibition at 30 µM: read-out: LTB-Induced Neutrophil Degranulation % Inhibition at 30 uM; for IC50: concentration-response, read-out: LTB-Induced Neutrophil Degranulation I50
Experimental: (§1) Each compound was tested in two in vitro models of LTB4 induced cell function. The cellular responses measured are presumed to be mediated via specific interactions of LTB4 with cellular receptors.
(§2) The cellular responses studied include 1) LTB4 -induced degranulation (release of myeloperoxidase) from purified human neutrophils and 2) LTB4 -induced adhesion of human neutrophils to latex beads. Each putative antagonist was tested at 30 uM for its effect on each response. Selected compounds were tested in a concentration-response fashion.
(1) Neutrophil Degranulation Assay
Neutrophils are isolated from human venous blood via a twostep sedimentation procedure, and contaminating erythrocytes are selectively lysed. The neutrophils were preincubated in 0.25% Hanks buffer containing bovine serum albumin (BSA) with 5 ug Cytochalasin B/ml cells for 5 minutes at 37° C. Neutrophils (4×10^6) are added to stimuli (LTB4 or buffer control) in the presence and absence of antagonist in Krebs-Ringer buffer to a final volume of 1.0 ml, and incubated at 37° C. for appropriate periods of time. At the end of the reaction period the neutrophils are pelleted by centrifugation at 3000 rpm for 5 minutes at 4° C.
Aliquots (0.2 ml) of the supernatants are added to polystyrene tubes to which are added the following: 0.6 ml )>25% Hanks BSA, 0.5 ml MPO buffer (0.2 M NaPO4, pH 6.2) and to start the color reaction 0.2 ml of a 1:1 v/v 0.05% H2 O2 :1.25 mg/ml dimethoxybenzidine (DMB). The reaction is allowed to run at room temperature for 15 minutes and is stopped by the addition of 0.05 ml 2% sodium azide. The developed color is quantitated in a spectrophotometer at 460 nm. The amount of myeloperoxidase (MPO) released by LTB4 stimulation can thus be determined. In order to determine the total amount of MPO in the cells an unstimulated control tube of neutrophils is lysed using 0.01 ml 10% Triton TX and the total MPO is determined via the color reaction and spectrophotometer reading. The activity of a given concentration of LTB4 is expressed as the percentage of the total MPO released. The activity of antagonists at a given concentration is expressed as a percentage of inhibiton of LTB4 -induced MPO release at a single concentration cf LTB4.

[2] = tested on: LTB4-induced adhesion of human neutrophils to latex beads; test: LTB4-induced neutrophil latex bead adhesion; assay type: cell-based; conditions: albumin-coated latex beads, read-out: LTB-Induced Neutrophil Bead Adhesion % Inhibition at 30 uM
Experimental: as §1, §2
(2) Neutrophil Latex Bead Adhesion
Latex bead suspension (0.6 ml; 10% aqueous suspension; particle diameter=1u) is pipeted into a 1.5 ml eppendorf centrifuge tube. The beads are pelleted by centrifugation, the supernatant is discarded and the beads are washed 2 times with 1 ml 0.9% saline. To the pelleted beads is added 0.5 ml saline and 0.5 ml 20 mg/ml human serum albumin (HSA) in Krebs-Ringer buffer. Allow bead-albumin mixture to sit at room temperature for 10 minutes, centrifuge for 1 minute and remove the supernatant, and wash albumin-coated beads 3 times with saline. Resuspend the beads in 1 ml of Krebs-Ringer.
Human neutrophils are prepared as described for the neutrophil degranulation assay and 10^7 cells are added to 0.3 ml of Krebs-Ringerin the presence and absence of LTB4 and putative antagonist and are incubated at 37° for an appropriate period of time.
The albumin-coated beads are then added in 0.05 ml to give a final bead concentration of 1% v/v, resulting in a bead to neutrophil ratio of 100:1. The tubes containing cells and beads are then placed in an agitating water bath at 37° C. and 120 oscillation per minute for 10 minutes. The reaction is stopped by adding an equal volume of 2.5% gluteraldehyde in saline. The reaction tubes are allowed to stand at room temperature for 30 minutes. The cells are then washed 3 times (with centrifugation at 1000 rpm for 5 minutes) with saline to remove the unadhered latex beads and resuspended in 0.3 ml saline.
Wet mounts are prepared and adherence is examined by light microscopy at 400x. Adherence is scored by counting five randomly placed fields of at least 50 neutrophils per field. […] Activity of the antagonists is expressed as the percent inhibition of LTB4 induced adherence.

SMILES	inhibition at 30 µM [1] [%]	inhibition at 30 µM [2] [%]	IC50 [1] [µM]
CN(C)C(=O)CCC(O)c1ccc2oc3ccc(C(O)Cc4ccccc4)cc3c2c1 (centres unmarked) [Compound 22, N,N-Dimethyl-4-[2-[8-(1-hydroxy)-2-phenylethyl]dibenzofuran-2-yl]-4-hydroxybutanamide]	100	1	–
CN(C)C(=O)CC(O)c1ccc2oc3ccc(C(O)Cc4ccccc4)cc3c2c1 (centres unmarked) [Compound 12, N,N-Dimethyl-3-[2-[8-(1-hydroxy)-2-phenylethyl]dibenzofuranyl]-3-hydroxypropanamide]	100	14	13
O=C(CCC(O)c1ccc2oc3ccc(C(O)Cc4ccccc4)cc3c2c1)N1CCCC1 (centres unmarked) [Compound 23, N-[4-[2-[8-(1-Hydroxy)-2-phenylethyl]dibenzofuranyl]-4-hydroxybutanoyl]pyrrolidine]	62	10	–
O=C(CCCC(O)c1ccc2oc3ccc(C(O)Cc4ccccc4)cc3c2c1)N1CCCC1 (centres unmarked) [Compound 42, N-[5-[2-[8-(1-Hydroxy)-2-phenylethyl]dibenzofuranyl]-5 hydroxypentanoyl]pyrrolidine]	100	12	19
O=C(O)CC(O)c1ccc2oc3ccc(C(O)Cc4ccccc4)cc3c2c1 (centres unmarked) [Compound 11, 3-[2-[8-(1-Hydroxy)-2-phenylethyl]dibenzofuranyl]-3-hydroxypropionic Acid]	35	7	–
CN(C)C(=O)CCCC(O)c1ccc2oc3ccc(C(O)Cc4ccccc4)cc3c2c1 (centres unmarked) [Compound 41, N,N-Dimethyl-5-[2-[8-(1-hydroxy)-2-phenylethyl]dibenzofuranyl}-5-hydroxypentanamide]	57	2	9
O=C(O)CCCC(O)c1ccc2oc3ccc(C(O)Cc4ccccc4)cc3c2c1 (centres unmarked) [Compound 40, Sodium 5-[2-[8-(1-Hydroxy)-2-phenylethyl]dibenzofuranyl]-5-hydroxypentanoate]	38	5	–
